In patent publication US11021481B2, “Substituted isoindolin-1-ones and 2,3-dihydro-1h-pyrrolo[3,4-c]pyridin-1-ones as HPK1 antagonists” (Nimbus Saturn, Inc., priority 2019, dated 2021):
pIC50: −log10 of the molar value. Where a name gives a salt, the structure may show the parent alone.

Biological target: HPK1 (Homo sapiens (Human), UniProt Q92918)
Assay: HPK1 biochemical enzyme assay (microfluidic mobility shift assay)
Conditions: 1.5 nM HPK1, ATP 1 mM final, 30 min preincubation, 60 min at RT, Caliper EZ Reader; read-out: HPK1 1000UMATP caliper IC50
Procedure, shortened: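 Mobility shift readout of HPK1 activity after a 60 min RT reaction with 1 mM ATP, 1 μM substrate and 5 mM MgCl2. Enzyme/substrate mix was first exposed to compounds for 30 min, using ten-point curves topping at 3 μM final.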

Sequence of HPK1 (Q92918 whole entry): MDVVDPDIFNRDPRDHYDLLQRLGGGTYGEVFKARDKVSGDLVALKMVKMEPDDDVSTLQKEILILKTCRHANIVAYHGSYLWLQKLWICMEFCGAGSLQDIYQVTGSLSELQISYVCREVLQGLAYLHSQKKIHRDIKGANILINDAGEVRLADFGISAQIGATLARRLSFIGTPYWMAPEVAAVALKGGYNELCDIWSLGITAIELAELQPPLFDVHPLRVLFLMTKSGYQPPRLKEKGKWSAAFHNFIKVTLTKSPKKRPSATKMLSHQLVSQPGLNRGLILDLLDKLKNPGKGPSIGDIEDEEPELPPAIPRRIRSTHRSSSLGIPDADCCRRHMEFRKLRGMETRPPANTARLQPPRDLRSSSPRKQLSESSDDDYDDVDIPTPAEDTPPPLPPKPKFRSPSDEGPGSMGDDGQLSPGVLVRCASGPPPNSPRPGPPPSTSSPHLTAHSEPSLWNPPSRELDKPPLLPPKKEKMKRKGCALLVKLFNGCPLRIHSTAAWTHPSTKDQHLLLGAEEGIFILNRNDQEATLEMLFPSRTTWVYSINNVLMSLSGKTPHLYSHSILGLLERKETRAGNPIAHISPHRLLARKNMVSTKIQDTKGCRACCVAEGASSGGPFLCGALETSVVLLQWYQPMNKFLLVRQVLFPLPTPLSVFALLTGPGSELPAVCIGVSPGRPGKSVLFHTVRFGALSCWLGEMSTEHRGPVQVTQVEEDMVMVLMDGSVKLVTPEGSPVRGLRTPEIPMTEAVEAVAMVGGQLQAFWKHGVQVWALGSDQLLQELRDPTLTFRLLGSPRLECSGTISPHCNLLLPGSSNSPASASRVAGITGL

With `CC(C)n1ccc2c(-c3ccc(Nc4ccc(N5CCN(C)CC5)cn4)c4c3CNC4=O)ccnc21` [I-48, 4-(1-isopropylpyrrolo [2,3-b]pyridin-4-yl)-7-[[5-(4-methylpiperazin-1-yl)-2-pyridyl]amino] isoindolin-1-one] as the compound, how does the pIC50 read?
The pIC50 was 6.00 to 7.00.

How did the pIC50 turn out when `COC[C@@H]1CN(c2ccc(Nc3ccc(-c4cnc5cc(F)ccn45)c4c3C(=O)NC4)nc2)CCO1` [I-442, (S)-4-(7-fluoroimidazo [1,2-a]pyridin-3-yl)-7-((5-(2-(methoxymeth-yl)morpholino)pyridin-2-yl)amino)isoin-dolin-1-one] was run?
Its pIC50 is > 7.00.

With `CNC1CCN(c2ccc(Nc3cnc(-c4ccnc5c4ccn5C)c4c3C(=O)NC4)nc2)CC1(F)F` (centres unmarked) [I-453, 7-[[5-[3,3-difluoro-4-(methylamino)-1-piperidyl]-2-pyridyl]amino]-4-(1-methylpyrrolo [2,3-b]pyridin-4-yl)-2,3-dihydropyrrolo [3,4-c]pyridin-1-one] as the compound, how does the pIC50 read?
The pIC50 was > 7.00.

With `CN1CCN(c2cccc(Nc3ccc(-c4ccnc5c4ccn5C)c4c3C(=O)NC4)n2)CC1` [I-247, 7-[[6-(4-methylpiperazin-1-yl)-2-pyridyl]amino]-4-(1-methylpyrrolo [2,3-b]pyridin-4-yl)isoindolin-1-one] as the compound, how does the pIC50 read?
The pIC50 was > 7.00.

With `O=C1NCc2c(-c3ccnn4cccc34)ncc(Nc3ccc(N4CCC(O)CC4)cn3)c21` [I-588, 7-((5-(4-hydroxypiperidin-1-yl)pyridin-2-yl)amino)-4-(pyrrolo[1,2-b]pyridazin-4-yl)-2,3-dihydro-1H-pyrrolo[3,4-c]pyridin-1-one] as the compound, how does the pIC50 read?
Its pIC50 is < 6.00.

How did the pIC50 turn out when `O=C1NCc2c(-c3cnc4cc(F)ccn34)ccc(Nc3ccc(N4CCO[C@@H](CO)C4)cn3)c21` [I-450, 4-(7-fluoroimidazo [1,2-a]pyridin-3-yl)-7-[[5-[(2R)-2-(hydroxymeth-yl)morpholin-4-yl]-2-pyridyl]amino] isoindolin-1-one] was run?
The pIC50 was > 7.00.

With `Cn1nc(Nc2ccc(-c3cnc4cc(F)ccn34)c3c2C(=O)NC3)cc1C1(O)CCOCC1` [I-566, 4-(7-fluoroimidazo [1,2-a]pyridin-3-yl)-7-((5-(4-hydroxytetrah-ydro-2H-pyran-4-yl)-1-methyl-1H-pyrazol-3-yl)amino)isoin-dolin-1-one] as the compound, how does the pIC50 read?
The pIC50 was > 7.00.

How did the pIC50 turn out when `O=C1NCc2c(-c3cnc4cc(F)ccn34)ccc(Nc3ccc([C@@H]4CCOC4)c(CN4CC[C@@H](F)C4)n3)c21` (stereo in doubt) [I-742] was run?
The pIC50 was > 7.00.

With `Cc1cnc2[nH]ccc2c1-c1ccc(Nc2ccc(N3CCN(C)CC3)cn2)c2c1CNC2=O` [I-78, 7-[[5-(4-methylpiperazin-1-yl)-2-pyridyl]amino]-4-(5-methyl-1H-pyrrolo[2,3-b]pyridin-4-yl)isoindolin-1-one] as the compound, how does the pIC50 read?
The pIC50 was 6.00 to 7.00.

`CN(C)Cc1cc(C2CCCO2)cc(Nc2ccc(-c3cnc4cc(F)ccn34)c3c2C(=O)NC3)n1` (centres unmarked) [I-852, 7-((6-((dimethylamino)-methyl)-4-(tetrahydrofuran-2-yl)pyridin-2-yl)amino)-4-(7-fluoroimidazo [1,2-a]pyridin-3-yl)isoindolin-1-one Formate salt] was tested. Which pIC50 did it give?
The pIC50 was > 7.00.

`Cn1ccc2c(-c3ncc(Nc4ccc(N5CCC[C@H](C(C)(C)O)C5)cn4)c4c3CNC4=O)cccc21` [I-216, 7-[[5-[(3S)-3-(1-hydroxy-1-methyl-ethyl)-1-piperidyl]-2-pyridyl]-amino]-4-(1-methylindol-4-yl)-2,3-dihydropyrrolo [3,4-c]pyridin-1-one] was tested. Which pIC50 did it give?
The pIC50 was > 7.00.

`CN(C)Cc1nc(Nc2cnc(-c3ccnc4c3ccn4C)c3c2C(=O)NC3)ccc1[C@@H]1CCOC1` (stereo in doubt) [I-707] was tested. Which pIC50 did it give?
The pIC50 was > 7.00.

`O=C1NCc2c(-c3ccnc4c3ccn4C(F)F)ncc(Nc3ccc(N4CCC(O)CC4)cn3)c21` [I-200, 4-[1-(difluorometh-yl)pyrrolo[2,3-b]pyridin-4-yl]-7-[[5-(4-hydroxy-1-piperidyl)-2-pyridyl]-amino]-2,3-dihxdropyrrolo [3,4-c]pyridin-1-one] was tested. Which pIC50 did it give?
Its pIC50 is > 7.00.

How did the pIC50 turn out when `Cn1ccc2c(-c3ccc(Nc4ccc(N5CCC(O)CC5)cn4)c4c3CNC4=O)cccc21` [I-161, 7-[[5-(4-hydroxy-1-piperidyl)-2-pyridyl]amino]-4-(1-methylindol-4-yl)isoindolin-1-one] was run?
Its pIC50 is > 7.00.
